Laboratory results as given in US12291514B1, “Ethyl 2-[9-(2-hydroxypyridin-3-yl)-3,6-diphenyl-1,8-dioxo-3,4,9,10-tetrahydroacridine-10-yl]-acetate as an antimicrobial compound” (KING FAISAL UNIVERSITY, priority 2023, dated 2025).

What was measured:
Type in all cases: cell-based
Conditions in all cases: after 10, 20, 40 and 60 minutes at all dilutions 1:100, 1:200, 1:400, 1:800
Staphylococcus aureus = test: Antimicrobial screening by agar dilution, St. Aereus
Experimental: (§1) The antibacterial properties of the synthesized compound, ethyl 2-[9-(2-hydroxypyridin-3-yl)-3,6-diphenyl-1,8-dioxo-3,4,9,10-tetrahydroacridine-10-yl]-acetate, were studied by the method of agar dilution. Test solutions of each compound was prepared in concentration of 1% using dimethylformamide as a solvent then they are diluted in physiological solution to obtain the final experimental dilutions 1:100, 1:200, 1:400, 1:800. The effect of these substances are compared with furacillin in a controllable study. The testing microbes used were gram positive bacteria Staphylococcus aureus, gram negative bacteria Pseudomonas aeruginosa and Escherichia coli and Candida albicans fungus. The experiments used for this survey were meat-pentonlu agar (EPA) for cultivation of bacteria and Saburo environment for the fungus. Each experiment used 1 mL of test solution on each plate […]. Two drops of emulsified with microbes feel were added. All experimental samples were taken from the agar after 10, 20, 40, 60 minutes in the environment on the basis of Patrk planted. The bacteria were cultivated at a temperature of 37° C. for 1 day and the mushroom was kept in a thermostat for 2 hours at a temperature of 28° C. Then results were checked.

Escherichia coli = test: Antimicrobial screening by agar dilution, E. Coli
Experimental: as §1

Pseudomonas aeruginosa = test: Antimicrobial screening by agar dilution, Ps. aeruginosa
Experimental: as §1

Candida albicans = test: Antimicrobial screening by agar dilution, Candida albicans
Experimental: as §1

Measured: inhibition activity (in words)

CCOC(=O)CN1C2=C(C(=O)CC(c3ccccc3)C2)C(c2cccnc2O)C2=C1CC(c1ccccc1)CC2=O (stereo not shown) [ethyl 2-[9-(2-hydroxypyridin-3-yl)-3,6-diphenyl-1,8-dioxo-3,4,9,10-tetrahydroacridine-10-yl]-acetate]
highest inhibition activity: Staphylococcus aureus | Escherichia coli | Pseudomonas aeruginosa | Candida albicans
